Data published in patent US20110160175A1, “18,21-Didesoxymacbecin Derivatives for the Treatment of Cancer” (priority 2006, published 2011).

Assays:
Hsp90 = Hsp90 (Homo sapiens, UniProt P07900); details: cited from earlier work
[1] = tested on: panel of human tumour cell lines; experiment: Monolayer proliferation assay, mean IC70 across the cell line panel; type: cell-based; details: geometric mean of all replicates across the 6 cell lines; concentration inhibiting cell growth by 70%
Description: In vitro evaluation of compounds for anticancer activity in a panel of human tumour cell lines in a monolayer proliferation assay were carried out at the Oncotest Testing Facility, Institute for Experimental Oncology, Oncotest GmbH, Freiburg.
The Oncotest cell lines were established from human tumor xenografts as described by Roth et al., (1999). The origin of the donor xenografts was described by Fiebig at al., (1999). Other cell lines were either obtained from the NCl (DU145, MCF-7) or purchased from DSMZ, Braunschweig, Germany.
All cell lines, unless otherwise specified, were grown at 37° C. in a humidified atmosphere (95% air, 5% CO2) in a ‘ready-mix’ medium containing RPMI 1640 medium, 10% fetal calf serum, and 0.1 mg/mL gentamicin (PAA, Cölbe, Germany). […]
Briefly, cells were harvested from exponential phase cultures by trypsinization, counted and plated in 96 well flat-bottomed microtitre plates at a cell density dependent on the cell line (5-10.000 viable cells/well). […] After thawing the plates, fluorescence was measured using the Cytofluor 4000 microplate reader (excitation 530 nm, emission 620 nm), giving a direct relationship to the total number of viable cells. Growth inhibition may be expressed as treated/control×100 (% T/C). […]

Row | Structure (SMILES) | binding affinity to Hsp90, fold greater than 17-AAG (Hsp90; relative to 17-AAG) [fold] | binding affinity to Hsp90, fold greater than geldanamycin (Hsp90; relative to geldanamycin) [fold] | average IC70 value across the cell-line panel [1] [µg/mL]
1 | CO[C@H]1C[C@H](C)Cc2cc(O)cc(c2)NC(=O)/C=C/CC[C@H](OC)[C@@H](OC(N)=O)/C(C)=C/[C@H](C)[C@H]1O [KOSN1559] | 8 | 4 | 
2 | CO[C@H]1[C@@H](OC)C[C@H](C)[C@@H](OC)C2=CC(=O)C=C(NC(=O)/C(C)=C/C=C\[C@H](C)[C@@H](OC(N)=O)/C(C)=C/[C@@H]1C)C2=O [macbecin] |  |  | 0.21
